Measured values: patent US9090628B2, “Benzoxazepin compounds selective for PI3K P110 delta and methods of use” (GENENTECH, INC., priority 2011, dated 2015)

Key:
p110 alpha = p110 alpha (Homo sapiens (Human), UniProt P42336); test: PI3K isoform inhibition assay, p110 alpha (for alpha/delta selectivity); conditions: ratio of biochemical IC50 values
Protocol: (§1) PI3K enzymatic activity was assayed by measuring the amount of product phosphatidylinositol 3,4,5-phosphate (PIP3) formed from substrate 4,5 phosphatidylinositol 4,5-phosphate (PIP2) using a fluorescence polarization displacement assay. The decrease in fluorescence polarization of a fluorescent PIP3 probe is measured as it is displaced from a PIP3-binding protein GRP-1 detector by PI3K-catalyzed product. […] The kinase reactions were initiated by the addition of 40 ng/mL p110α/p85α, 300 ng/mL p110β/p85α, 40 ng/mL p110γ, or 40 ng/mL p110δ/p85α (Upstate Group, Millipore; Dundee, UK), and 10 μM PIP2 (Echelon Biosciences) to the wells. […] After 60 minutes of incubation at room temperature to allow equilibration of labeled and unlabeled PIP3 binding, the parallel and perpendicular components of the fluorescence emissions from each sample were measured at an excitation wavelength of 530 nm and an emission wavelength of 590 nm using an Envision fluorescent plate reader with a rhodamine filter (PerkinElmer Life and Analytical Sciences; Wellesley, Mass.). The assay is capable of detecting 0.1-2.0 μM PIP3 product. The IC50 values were obtained by fitting the dose-dependent inhibition data to a 4-parameter equation using Assay Explorer software (MDL, San Ramon, Calif.).
The same protocol may be used to establish IC50 values for p110α (alpha) PI3K binding.
(§2) The four Class I PI 3-kinases are cloned into baculovirus vectors as follows: […]

p110 delta = p110 delta (Homo sapiens (Human), UniProt O00329); test: PI3K isoform inhibition assay, p110 delta (fluorescence polarization displacement); format: biochemical
p110 delta, sequence (O00329 whole entry, canonical isoform): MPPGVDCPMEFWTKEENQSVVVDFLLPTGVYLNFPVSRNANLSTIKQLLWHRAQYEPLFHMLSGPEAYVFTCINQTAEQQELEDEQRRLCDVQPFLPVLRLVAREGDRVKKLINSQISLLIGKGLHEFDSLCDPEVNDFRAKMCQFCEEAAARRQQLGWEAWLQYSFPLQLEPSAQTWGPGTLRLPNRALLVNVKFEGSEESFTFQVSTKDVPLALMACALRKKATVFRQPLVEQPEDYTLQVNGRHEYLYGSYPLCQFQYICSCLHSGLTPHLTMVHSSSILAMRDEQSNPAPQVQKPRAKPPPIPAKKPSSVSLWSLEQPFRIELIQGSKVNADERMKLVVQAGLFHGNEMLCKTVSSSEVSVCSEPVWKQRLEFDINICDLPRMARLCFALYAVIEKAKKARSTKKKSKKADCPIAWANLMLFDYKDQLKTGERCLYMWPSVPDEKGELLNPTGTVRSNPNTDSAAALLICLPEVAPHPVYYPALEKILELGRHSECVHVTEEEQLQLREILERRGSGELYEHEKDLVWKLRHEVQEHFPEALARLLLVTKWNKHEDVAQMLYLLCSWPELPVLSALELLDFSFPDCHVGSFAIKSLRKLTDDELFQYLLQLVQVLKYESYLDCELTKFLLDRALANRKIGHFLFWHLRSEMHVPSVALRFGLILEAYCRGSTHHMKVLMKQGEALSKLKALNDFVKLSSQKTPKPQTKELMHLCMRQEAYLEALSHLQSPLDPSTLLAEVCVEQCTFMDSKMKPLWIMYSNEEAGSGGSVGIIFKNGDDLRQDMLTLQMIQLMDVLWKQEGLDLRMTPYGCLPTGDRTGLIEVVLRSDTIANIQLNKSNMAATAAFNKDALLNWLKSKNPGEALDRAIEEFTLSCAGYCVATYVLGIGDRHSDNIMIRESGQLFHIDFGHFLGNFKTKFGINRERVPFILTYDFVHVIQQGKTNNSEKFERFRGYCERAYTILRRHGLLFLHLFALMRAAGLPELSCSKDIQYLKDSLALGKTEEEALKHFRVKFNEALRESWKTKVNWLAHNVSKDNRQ
p110 delta, sequence (P27986 whole entry partner, canonical isoform): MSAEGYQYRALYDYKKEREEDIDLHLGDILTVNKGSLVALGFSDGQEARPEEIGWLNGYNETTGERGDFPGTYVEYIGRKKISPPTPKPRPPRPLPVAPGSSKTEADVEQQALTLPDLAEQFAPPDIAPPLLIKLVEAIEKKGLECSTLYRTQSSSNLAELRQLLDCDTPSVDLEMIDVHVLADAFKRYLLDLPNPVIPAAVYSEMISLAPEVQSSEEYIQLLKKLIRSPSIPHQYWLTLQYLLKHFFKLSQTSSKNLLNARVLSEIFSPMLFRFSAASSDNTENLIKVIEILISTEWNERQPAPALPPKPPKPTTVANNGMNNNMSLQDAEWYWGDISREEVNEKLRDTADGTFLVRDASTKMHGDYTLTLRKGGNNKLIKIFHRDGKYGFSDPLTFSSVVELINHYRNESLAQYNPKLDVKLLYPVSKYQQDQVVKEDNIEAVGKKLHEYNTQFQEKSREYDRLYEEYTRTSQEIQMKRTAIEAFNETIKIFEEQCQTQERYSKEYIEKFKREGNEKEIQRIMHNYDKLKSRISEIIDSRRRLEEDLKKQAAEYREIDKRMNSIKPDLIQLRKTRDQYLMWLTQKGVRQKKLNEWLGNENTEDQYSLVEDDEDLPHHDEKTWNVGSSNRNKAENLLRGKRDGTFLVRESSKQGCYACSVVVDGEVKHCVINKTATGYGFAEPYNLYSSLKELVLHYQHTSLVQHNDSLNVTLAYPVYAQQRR
Protocol: as §1
The Formula I compound was serially diluted in 100% DMSO. The kinase reaction was incubated for 1 h at room temperature, and the reaction was terminated by the addition of PBS. IC50 values were subsequently determined using sigmoidal dose-response curve fit (variable slope).
as §2

p110 alpha, sequence (P42336 whole entry, canonical isoform): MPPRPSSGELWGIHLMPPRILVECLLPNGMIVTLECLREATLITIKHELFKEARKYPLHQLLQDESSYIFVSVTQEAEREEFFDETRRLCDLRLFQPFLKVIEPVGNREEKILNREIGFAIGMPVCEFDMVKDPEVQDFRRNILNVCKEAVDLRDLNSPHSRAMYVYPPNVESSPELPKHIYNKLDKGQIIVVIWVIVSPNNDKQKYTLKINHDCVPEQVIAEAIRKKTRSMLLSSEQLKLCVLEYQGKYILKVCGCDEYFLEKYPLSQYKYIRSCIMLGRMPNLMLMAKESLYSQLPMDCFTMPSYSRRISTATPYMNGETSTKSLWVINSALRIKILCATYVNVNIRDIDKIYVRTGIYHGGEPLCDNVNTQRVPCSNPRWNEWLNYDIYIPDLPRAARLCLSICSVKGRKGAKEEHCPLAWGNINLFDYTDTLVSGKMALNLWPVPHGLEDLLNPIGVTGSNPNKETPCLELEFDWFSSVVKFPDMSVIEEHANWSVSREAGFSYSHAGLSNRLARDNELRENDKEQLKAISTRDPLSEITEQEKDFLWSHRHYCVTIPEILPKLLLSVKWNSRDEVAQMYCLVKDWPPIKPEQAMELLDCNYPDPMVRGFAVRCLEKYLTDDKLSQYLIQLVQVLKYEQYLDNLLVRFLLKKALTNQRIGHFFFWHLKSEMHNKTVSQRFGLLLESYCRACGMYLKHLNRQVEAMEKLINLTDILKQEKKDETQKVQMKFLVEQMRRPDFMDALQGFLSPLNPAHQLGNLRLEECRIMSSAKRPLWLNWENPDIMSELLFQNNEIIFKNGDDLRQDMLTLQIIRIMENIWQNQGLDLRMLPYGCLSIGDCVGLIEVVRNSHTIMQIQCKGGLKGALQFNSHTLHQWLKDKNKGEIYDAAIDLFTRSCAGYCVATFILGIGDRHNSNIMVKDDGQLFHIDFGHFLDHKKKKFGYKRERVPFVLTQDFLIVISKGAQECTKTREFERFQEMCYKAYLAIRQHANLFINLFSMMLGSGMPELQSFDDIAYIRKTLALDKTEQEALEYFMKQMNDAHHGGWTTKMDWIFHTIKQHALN
p110 alpha, sequence (P27986 whole entry partner, canonical isoform): as the sequence (P27986 whole entry partner, canonical isoform) above

| IC50 p110 alpha/IC50 p110 delta (p110 alpha) | IC50 (p110 delta) | SMILES |
| --- | --- | --- |
| 52.9 | 0.416 nM | Cc1nc(-c2cn3c(n2)-c2ccc(N4CCC[C@@H]4CN4CCCC4)cc2OCC3)n(C(C)C)n1 [Example 326, (R)-2-(1-isopropyl-3-methyl-1H-1,2,4-triazol-5-yl)-9-(2-(pyrrolidin-1-ylmethyl)pyrrolidin-1-yl)-5,6-dihydrobenzo[f]imidazo[1,2-d][1,4]oxazepine] |
| 54.6 | 0.705 nM | CC(C)n1nc(N)nc1-c1cn2c(n1)-c1ccc(-c3ccnn3C3CCN(C)CC3)cc1OCC2 [Example 298, 1-isopropyl-5-[9-[2-(1-methyl-4-piperidyl)pyrazol-3-yl]-5,6-dihydroimidazo[1,2-d][1,4]benzoxazepin-2-yl]-1,2,4-triazol-3-amine] |
| 27.8 | 4 nM | Cc1nc(-c2cn3c(n2)-c2ccc(-c4cnn(C(C)C)c4CN4CCN(C(C)(C)C)CC4)cc2OCC3)n(C(C)C)n1 [Example 277, 9-[5-[(4-tert-butylpiperazin-1-yl)methyl]-1-isopropyl-pyrazol-4-yl]-2-(2-isopropyl-5-methyl-1,2,4-triazol-3-yl)-5,6-dihydroimidazo[1,2-d][1,4]benzoxazepine] |
| 85.9 | 2.1 nM | Cc1nc(-c2cn3c(n2)-c2cc([C@H](C)N4CCN(C(C)(C)CO)CC4)ncc2OCC3)n(C(C)C)n1 [Example 364, (S)-2-(4-(1-(2-(1-isopropyl-3-methyl-1H-1,2,4-triazol-5-yl)-5,6-dihydroimidazo[1,2-d]pyrido[4,3-f][1,4]oxazepin-10-yl)ethyl)piperazin-1-yl)-2-methylpropan-1-ol] |
| 33.4 | 3.34 nM | Cc1nc(-c2cn3c(n2)-c2ccc(-c4cnn(C(C)C)c4CN4CCN(C)CC4)cc2OCC3)n(C(C)C)n1 [Example 278, 9-[1-isopropyl-5-[(4-methylpiperazin-1-yl)methyl]pyrazol-4-yl]-2-(2-isopropyl-5-methyl-1,2,4-triazol-3-yl)-5,6-dihydroimidazo[1,2-d][1,4]benzoxazepine] |
| 22.3 | 6.51 nM | Cc1nc(-c2cn3c(n2)-c2ccc(-c4cnc(C)n4C4CCCN(C(C)C)C4)cc2OCC3)n(C(C)C)n1 (centres unmarked) [Example 317, 2-(2-isopropyl-5-methyl-1,2,4-triazol-3-yl)-9-[3-(1-isopropyl-3-piperidyl)-2-methyl-imidazol-4-yl]-5,6-dihydroimidazo[1,2-d][1,4]benzoxazepine] |
| 104 | 0.865 nM | Cc1nc(-c2cn3c(n2)-c2cc([C@@H](C)N4CCN(C(C)C)CC4)c(C)cc2OCC3)n(C(C)C)n1 [Example 331, (R)-2-(1-isopropyl-3-methyl-1H-1,2,4-triazol-5-yl)-10-(1-(4-isopropylpiperazin-1-yl)ethyl)-9-methyl-5,6-dihydrobenzo[f]imidazo[1,2-d][1,4]oxazepine] |
| 46.8 | 1.35 nM | Cc1nc(-c2cn3c(n2)-c2ccc(N4CCCC4C4CCCN(C)C4)cc2OCC3)n(C(C)C)n1 (centres unmarked) [Example 311, 2-(2-isopropyl-5-methyl-1,2,4-triazol-3-yl)-9-[2-(1-methyl-3-piperidyl)pyrrolidin-1-yl]-5,6-dihydroimidazo[1,2-d][1,4]benzoxazepine] |
| 24 | 0.311 nM | Cc1nc(-c2cn3c(n2)-c2ccc(-c4cn[nH]c4C4CCCN(C(C)C)C4)cc2OCC3)n(C(C)C)n1 (centres unmarked) [Example 360, 2-(2-isopropyl-5-methyl-1,2,4-triazol-3-yl)-9-[5-(1-isopropyl-3-piperidyl)-1H-pyrazol-4-yl]-5,6-dihydroimidazo[1,2-d][1,4]benzoxazepine] |

The next lines start with the molecule.

| SMILES | IC50 p110 alpha/IC50 p110 delta (p110 alpha) | IC50 (p110 delta) |
| --- | --- | --- |
| Cc1nc(-c2cn3c(n2)-c2cc(-c4ccnn4[C@@H]4CCCN(C(C)C)C4)c(F)cc2OCC3)n(C(C)C)n1 [Example 315, (R)-9-fluoro-2-(1-isopropyl-3-methyl-1H-1,2,4-triazol-5-yl)-10-(1-(1-isopropylpiperidin-3-yl)-1H-pyrazol-5-yl)-5,6-dihydrobenzo[f]imidazo[1,2-d][1,4]oxazepine] | 25.8 | 0.44 nM |
| CC(C)n1ncnc1-c1cn2c(n1)-c1cnc(N3CCCC3C3CCN(C)CC3)cc1OCC2 (centres unmarked) [Example 106, 2-(1-isopropyl-1H-1,2,4-triazol-5-yl)-9-(2-(1-methylpiperidin-4-yl)pyrrolidin-1-yl)-5,6-dihydroimidazo[1,2-d]pyrido[3,4-f][1,4]oxazepine] | 25.7 | 0.541 nM |
| Cc1nc(-c2cn3c(n2)-c2ccc(N4CCCC45CCCN(C)C5)cc2OCC3)n(C(C)C)n1 (centres unmarked) [Example 320, 2-(2-isopropyl-5-methyl-1,2,4-triazol-3-yl)-9-(7-methyl-1,7-diazaspiro[4.5]decan-1-yl)-5,6-dihydroimidazo[1,2-d][1,4]benzoxazepine] | 54.6 | 0.236 nM |
| Cc1nc(-c2cn3c(n2)-c2cc(-c4ccnn4[C@H]4CCCN(C(C)C)C4)c(F)cc2OCC3)n(C(C)C)n1 [Example 316, (S)-9-fluoro-2-(1-isopropyl-3-methyl-1H-1,2,4-triazol-5-yl)-10-(1-(1-isopropylpiperidin-3-yl)-1H-pyrazol-5-yl)-5,6-dihydrobenzo[f]imidazo[1,2-d][1,4]oxazepine] | 214 | < 0.035 nM |
| CCN1CCC(C2CCCN2c2ccc3c(c2)OCCn2cc(-c4nc(C)nn4C(C)C)nc2-3)CC1 (centres unmarked) [Example 304, 9-[2-(1-ethyl-4-piperidyl)pyrrolidin-1-yl]-2-(2-isopropyl-5-methyl-1,2,4-triazol-3-yl)-5,6-dihydroimidazo[1,2-d][1,4]benzoxazepine] | 36.4 | 0.52 nM |
| Cc1nc(-c2cn3c(n2)-c2cc(C(C)N4CCN(C(C)(C)C)CC4)c(F)cc2OCC3)n(C(C)C)n1 (centres unmarked) [Example 328, 10-[1-(4-tert-butylpiperazin-1-yl)ethyl]-9-fluoro-2-(2-isopropyl-5-methyl-1,2,4-triazol-3-yl)-5,6-dihydroimidazo[1,2-d][1,4]benzoxazepine] | 109 | 2.29 nM |
| Cc1nc(-c2cn3c(n2)-c2ccc(N4CCCC45CCCN(C(C)C)C5)cc2OCC3)n(C(C)C)n1 (centres unmarked) [Example 337, 9-(7-isopropyl-1,7-diazaspiro[4.5]decan-1-yl)-2-(2-isopropyl-5-methyl-1,2,4-triazol-3-yl)-5,6-dihydroimidazo[1,2-d][1,4]benzoxazepine] | 47.9 | 1.52 nM |
| Cc1nc(-c2cn3c(n2)-c2cc([C@H](C)N4CCN(C(C)(C)C)CC4)ncc2OCC3)n(C(C)C)n1 [Example 303, (S)-10-(1-(4-tert-butylpiperazin-1-yl)ethyl)-2-(1-isopropyl-3-methyl-1H-1,2,4-triazol-5-yl)-5,6-dihydroimidazo[1,2-d]pyrido[4,3-f][1,4]oxazepine] | 113 | 1.92 nM |
| CCN(CC)C1CCOC(c2c(-c3ccc4c(c3)OCCn3cc(-c5nc(C)nn5C(C)C)nc3-4)cnn2C)C1 (centres unmarked) [Example 339, N,N-diethyl-2-[4-[2-(2-isopropyl-5-methyl-1,2,4-triazol-3-yl)-5,6-dihydroimidazo[1,2-d][1,4]benzoxazepin-9-yl]-2-methyl-pyrazol-3-yl]tetrahydropyran-4-amine] | 61.5 | 1.07 nM |
| Cc1nc(-c2cn3c(n2)-c2ccc(N4CCC[C@H]4CN4CCCC4)cc2OCC3)n(C(C)C)n1 [Example 325, (S)-2-(1-isopropyl-3-methyl-1H-1,2,4-triazol-5-yl)-9-(2-(pyrrolidin-1-ylmethyl)pyrrolidin-1-yl)-5,6-dihydrobenzo[f]imidazo[1,2-d][1,4]oxazepine] | 20.2 | 0.313 nM |
| Cc1nc(-c2cn3c(n2)-c2cc([C@@H](C)N4CCN(C(C)(C)CO)CC4)c(F)cc2OCC3)n(C(C)C)n1 [Example 347, (R)-2-(4-(1-(9-fluoro-2-(1-isopropyl-3-methyl-1H-1,2,4-triazol-5-yl)-5,6-dihydrobenzo[f]imidazo[1,2-d][1,4]oxazepin-10-yl)ethyl)piperazin-1-yl)-2-methylpropan-1-ol] | 47.5 | 5.53 nM |
| Cc1nc(-c2cn3c(n2)-c2cc(-c4cnn(C)c4C4CCCN(C(C)C)C4)c(F)cc2OCC3)n(C(C)C)n1 (centres unmarked) [Example 359, 9-fluoro-2-(2-isopropyl-5-methyl-1,2,4-triazol-3-yl)-10-[5-(1-isopropyl-3-piperidyl)-1-methyl-pyrazol-4-yl]-5,6-dihydroimidazo[1,2-d][1,4]benzoxazepine] | 54.1 | 0.37 nM |
| Cc1nc(-c2cn3c(n2)-c2ccc(OC4(CC5CC5)CNC4)cc2OCC3)n(C(C)C)n1 [Example 284, 9-[3-(cyclopropylmethyl)azetidin-3-yl]oxy-2-(2-isopropyl-5-methyl-1,2,4-triazol-3-yl)-5,6-dihydroimidazo[1,2-d][1,4]benzoxazepine] | 23.9 | 2.9 nM |
